# Earlier results, collected in PubChem BioAssay AID1259409 (Chemical Carcinogenesis Research Information System (CCRIS), 2018).
# System: rodent chemically induced tumor inhibition, incidence and multiplicity
# Assay: CCRIS tumor inhibitor studies
smiles,measurement,setting,value
CC1=C[C@H]2O[C@@H]3[C@H](O)[C@@H](O)[C@](C)([C@@]2(CO)[C@H](O)C1=O)[C@]31CO1,"tumour outcome (control, treated, inhibition, significance)","Dose [Inhibitor]: 0, 6 PPM IN DIET BEGINNING 6 WK POST CARCINOGEN DOSE AND CONTINUING FOR 65 WK (STUDY DURATION: 65 WK), Route [Inhibitor]: ORAL, Species: MOUSE, Strain/Sex: B6C3F1/FEMALE, Target Tissue: Type of Lesion: LIVER: TUMOR, Dose [Carcinogen]: 6 MG/KG ONCE, Promoter: NONE USED","8/26 (31%), 3/15 (20%), 35%, not significant"
same,"tumour outcome (control, treated, inhibition, significance)","Dose [Inhibitor]: 0, 6 PPM IN PELLET DIET FOR 1 YR BEGINNING 7 WK POST CARCINOGEN (STUDY DURATION: 60 WK), Route [Inhibitor]: ORAL, Species: MOUSE, Strain/Sex: B6C3F1/FEMALE, Target Tissue: Type of Lesion: LIVER: HEPATOCELLULAR ADENOMA, Dose [Carcinogen]: 6 MG/KG ONCE","6/26 (23%), 1/15 (7%), 70%, not calculated"
same,"tumour outcome (control, treated, inhibition, significance)","Dose [Inhibitor]: 0, 6 PPM IN PELLET DIET FOR 1 YR BEGINNING 7 WK POST CARCINOGEN (STUDY DURATION: 60 WK), Route [Inhibitor]: ORAL, Species: MOUSE, Strain/Sex: B6C3F1/FEMALE, Target Tissue: Type of Lesion: LIVER: HEPATOCELLULAR TUMOR, Dose [Carcinogen]: 6 MG/KG ONCE","8/26 (31%), 3/15 (20%), 35%, not significant"
same,"tumour outcome (control, treated, inhibition, significance)","Dose [Inhibitor]: 0, 12 PPM IN DIET BEGINNING 6 WK POST CARCINOGEN DOSE AND CONTINUING FOR 65 WK (STUDY DURATION: 65 WK), Route [Inhibitor]: ORAL, Species: MOUSE, Strain/Sex: B6C3F1/FEMALE, Target Tissue: Type of Lesion: LIVER: TUMOR, Dose [Carcinogen]: 6 MG/KG ONCE, Promoter: NONE USED","8/26 (31%), 0/19 (0%), 100%, p<0.01"
same,"tumour outcome (control, treated, inhibition, significance)","Dose [Inhibitor]: 0, 12 PPM IN DIET BEGINNING 6 WK POST CARCINOGEN DOSE AND CONTINUING FOR 65 WK (STUDY DURATION: 65 WK), Route [Inhibitor]: ORAL, Species: MOUSE, Strain/Sex: B6C3F1/MALE, Target Tissue: Type of Lesion: LIVER: TUMOR, Dose [Carcinogen]: 6 MG/KG ONCE, Promoter: NONE USED","19/19 (100%), 18/18 (100%), 0%, not significant"
same,"tumour outcome (control, treated, inhibition, significance)","Dose [Inhibitor]: 0, 12 PPM IN DIET FOR 1 YR BEGINNING 7 WK POST CARCINOGEN (STUDY DURATION: 60 WK), Route [Inhibitor]: ORAL, Species: MOUSE, Strain/Sex: B6C3F1/MALE, Target Tissue: Type of Lesion: LIVER: HEPATOCELLULAR CARCINOMA, Dose [Carcinogen]: 6 MG/KG ONCE","17/19 (89%), 15/18 (83%), 7%, not calculated"
same,"tumour outcome (control, treated, inhibition, significance)","Dose [Inhibitor]: 0, 12 PPM IN PELLET DIET FOR 1 YR BEGINNING 7 WK POST CARCINOGEN (STUDY DURATION : 60 WK), Route [Inhibitor]: ORAL, Species: MOUSE, Strain/Sex: B6C3F1/FEMALE, Target Tissue: Type of Lesion: LIVER: HEPATOCELLULAR ADENOMA, Dose [Carcinogen]: 6 MG/KG ONCE","6/26 (23%), 0/19 (0%), 100%, not calculated"
same,"tumour outcome (control, treated, inhibition, significance)","Dose [Inhibitor]: 0, 12 PPM IN PELLET DIET FOR 1 YR BEGINNING 7 WK POST CARCINOGEN (STUDY DURATION : 60 WK), Route [Inhibitor]: ORAL, Species: MOUSE, Strain/Sex: B6C3F1/FEMALE, Target Tissue: Type of Lesion: LIVER: HEPATOCELLULAR CARCINOMA, Dose [Carcinogen]: 6 MG/KG ONCE","1/26 (4%), 0/19 (0%), 100%, not calculated"
same,"tumour outcome (control, treated, inhibition, significance)","Dose [Inhibitor]: 0, 12 PPM IN PELLET DIET FOR 1 YR BEGINNING 7 WK POST CARCINOGEN (STUDY DURATION : 60 WK), Route [Inhibitor]: ORAL, Species: MOUSE, Strain/Sex: B6C3F1/FEMALE, Target Tissue: Type of Lesion: LIVER: HEPATOCELLULAR TUMOR, Dose [Carcinogen]: 6 MG/KG ONCE","8/26 (31%), 0/19 (0%), 100%, p<0.01"
same,"tumour outcome (control, treated, inhibition, significance)","Dose [Inhibitor]: 0, 12 PPM IN PELLET FOR 1 YR BEGINNING 7 WK POST CARCINOGEN (STUDY DURATION: 60 WK), Route [Inhibitor]: ORAL, Species: MOUSE, Strain/Sex: B6C3F1/MALE, Target Tissue: Type of Lesion: LIVER: HEPATOCELLULAR TUMOR, Dose [Carcinogen]: 6 MG/KG ONCE","19/19 (100%), 18/18 (100%), 0%, not significant"
CC(C)=C1C=CC(O)CC1 (stereo not given),"tumour outcome (control, treated, inhibition, significance)","Carcinogen: 7,12-DIMETHYLBENZ[A]ANTHRACENE, 57-97-6, Dose [Inhibitor]: 0, 12 NMOL PER REPEATED APPLICATION FOR 20 WK (STUDY DURATION: 20 WK), Route [Inhibitor]: DERMAL, Species: MOUSE, Strain/Sex: CD-1/FEMALE, Target Tissue: Type of Lesion: SKIN: TUMOR, Dose [Carcinogen]: 100 UG ONCE, Promoter: OKADAIC ACID, 78111-17-8","87%, 67%, 23%, not calculated"
[O]=[W](=[O])([OH])[OH],outcome,"Carcinogen: N-NITROSO-N-METHYLUREA, 684-93-5, Dose [Inhibitor]: 0, 150 PPM IN DRINKING WATER BEGINNING AT 35 D OF AGE (STUDY DURATION:198 D), Route [Inhibitor]: ORAL, Species: RAT, Strain/Sex: SPRAGUE-DAWLEY/FEMALE, Target Tissue: Type of Lesion: MAMMARY GLAND: CARCINOMA, Dose [Carcinogen]: 5 MG/100 G BW ONCE AT 50 D OF AGE, Promoter: NONE USED","50%, 79%, -58%, p<0.05 at 125 d; 91%, 96%, -5%, not calculated at 198 d"
same,"tumour outcome (control, treated, inhibition, significance)","Carcinogen: N-NITROSOSARCOSINE ETHYL ESTER, 1130-69-4, Dose [Inhibitor]: 100 PPM IN DRINKING WATER DAILY FOR 19 WK STARTING 3 WK PRIOR TO START OF CARCINOGEN TREATMENT (STUDY DURATION: 19 WK), Route [Inhibitor]: ORAL, Species: RAT, Strain/Sex: SPRAGUE-DAWLEY/MALE, Target Tissue: Type of Lesion: ESOPHAGUS: CARCINOMA, Dose [Carcinogen]: 10 ML/KG BW 2/WK FOR 8 WK, Promoter: NONE USED","80%, 80%, 0%, not significant"
same,"tumour outcome (control, treated, inhibition, significance)","Carcinogen: N-NITROSOSARCOSINE ETHYL ESTER, 1130-69-4, Dose [Inhibitor]: 100 PPM IN DRINKING WATER DAILY FOR 19 WK STARTING 3 WK PRIOR TO START OF CARCINOGEN TREATMENT (STUDY DURATION: 19 WK), Route [Inhibitor]: ORAL, Species: RAT, Strain/Sex: SPRAGUE-DAWLEY/MALE, Target Tissue: Type of Lesion: FORESTOMACH: CARCINOMA, Dose [Carcinogen]: 10 ML/KG BW 2/WK FOR 8 WK, Promoter: NONE USED","70%, 80%, -14%, not significant"
same,"tumour outcome (control, treated, inhibition, significance)","Carcinogen: N-NITROSOSARCOSINE ETHYL ESTER, 1130-69-4, Dose [Inhibitor]: 100 PPM IN DRINKING WATER DAILY FOR 30 WK STARTING 3 WK PRIOR TO START OF CARCINOGEN TREATMENT (STUDY DURATION: 30 WK), Route [Inhibitor]: ORAL, Species: RAT, Strain/Sex: SPRAGUE-DAWLEY/MALE, Target Tissue: Type of Lesion: ESOPHAGUS: CARCINOMA, Dose [Carcinogen]: 10 ML/KG BW 2/WK FOR 8 WK, Promoter: NONE USED","91%, 86%, 5%, not significant"
same,"tumour outcome (control, treated, inhibition, significance)","Carcinogen: N-NITROSOSARCOSINE ETHYL ESTER, 1130-69-4, Dose [Inhibitor]: 100 PPM IN DRINKING WATER DAILY FOR 30 WK STARTING 3 WK PRIOR TO START OF CARCINOGEN TREATMENT (STUDY DURATION: 30 WK), Route [Inhibitor]: ORAL, Species: RAT, Strain/Sex: SPRAGUE-DAWLEY/MALE, Target Tissue: Type of Lesion: FORESTOMACH: CARCINOMA, Dose [Carcinogen]: 10 ML/KG BW 2/WK FOR 8 WK, Promoter: NONE USED","100%, 100%, 0%, not significant"
CCN(CC)CCCCOc1ccc(/C(=C(/Cl)c2ccccc2)c2ccccc2)cc1,"tumour outcome (control, treated, inhibition, significance)","Carcinogen: N-METHYL-N-NITROSOUREA, 684-93-5, Dose [Inhibitor]: 0, 0.003 MG/KG BW 1/D FOR 90 D BEGINNING 1 WK POST CARCINOGEN DOSE (STUDY DURATION: 90 D), Route [Inhibitor]: GAVAGE, Species: RAT, Strain/Sex: SPRAGUE-DAWLEY/FEMALE, Target Tissue: Type of Lesion: MAMMARY GLAND: CARCINOMA, Dose [Carcinogen]: 50 MG/KG BW ONCE, Promoter: NONE USED","100%, 50%, 50%, not calculated"
same,"tumour outcome (control, treated, inhibition, significance)","Carcinogen: N-METHYL-N-NITROSOUREA, 684-93-5, Dose [Inhibitor]: 0, 0.01 MG/KG BW 1/D FOR 90 D BEGINNING 1 WK POST CARCINOGEN DOSE (STUDY DURATION: 90 D), Route [Inhibitor]: GAVAGE, Species: RAT, Strain/Sex: SPRAGUE-DAWLEY/FEMALE, Target Tissue: Type of Lesion: MAMMARY GLAND: CARCINOMA, Dose [Carcinogen]: 50 MG/KG BW ONCE, Promoter: NONE USED","100%, 30%, 70%, not calculated"
same,"tumour outcome (control, treated, inhibition, significance)","Carcinogen: N-METHYL-N-NITROSOUREA, 684-93-5, Dose [Inhibitor]: 0, 0.1 MG/KG BW 1/D FOR 85 D BEGINNING 1 WK POST CARCINOGEN DOSE (STUDY DURATION: 85 D), Route [Inhibitor]: GAVAGE, Species: RAT, Strain/Sex: SPRAGUE-DAWLEY/FEMALE, Target Tissue: Type of Lesion: MAMMARY GLAND: CARCINOMA, Dose [Carcinogen]: 50 MG/KG BW ONCE, Promoter: NONE USED","100%, 5%, 95%, not calculated"
same,"tumour outcome (control, treated, inhibition, significance)","Carcinogen: N-METHYL-N-NITROSOUREA, 684-93-5, Dose [Inhibitor]: 0, 1 MG/KG BW 1/D FOR 85 D BEGINNING 1 WK POST CARCINOGEN DOSE (STUDY DURATION: 85 D), Route [Inhibitor]: GAVAGE, Species: RAT, Strain/Sex: SPRAGUE-DAWLEY/FEMALE, Target Tissue: Type of Lesion: MAMMARY GLAND: CARCINOMA, Dose [Carcinogen]: 50 MG/KG BW ONCE, Promoter: NONE USED","100%, 5%, 95%, not calculated"
